Calls of active or inactive are those of the source. Rule as the data show it, for most assays here: actives have a measured Kd and inactives only a lower limit.
Tests used:
[1] = target: T1, Calcium/calmodulin-dependent protein kinase type IV (Homo sapiens, UniProt Q16566)
T1 sequence (Q16566 whole entry): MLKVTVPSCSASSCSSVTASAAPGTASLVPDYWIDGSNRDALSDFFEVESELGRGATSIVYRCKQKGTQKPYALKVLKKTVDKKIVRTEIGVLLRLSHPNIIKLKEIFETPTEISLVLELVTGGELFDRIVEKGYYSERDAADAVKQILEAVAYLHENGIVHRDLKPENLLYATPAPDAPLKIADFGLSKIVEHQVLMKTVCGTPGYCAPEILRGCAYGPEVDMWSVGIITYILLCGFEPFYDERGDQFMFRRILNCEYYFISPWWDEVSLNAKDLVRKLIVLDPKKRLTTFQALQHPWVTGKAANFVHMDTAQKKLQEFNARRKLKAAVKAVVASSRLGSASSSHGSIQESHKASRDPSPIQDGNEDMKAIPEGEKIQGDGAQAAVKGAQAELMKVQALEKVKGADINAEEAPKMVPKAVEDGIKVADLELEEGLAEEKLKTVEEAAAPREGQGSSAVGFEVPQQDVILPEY

[2] = target: T2, Serine/threonine-protein kinase TBK1 (Homo sapiens, UniProt Q9UHD2)
T2 sequence (Q9UHD2 whole entry): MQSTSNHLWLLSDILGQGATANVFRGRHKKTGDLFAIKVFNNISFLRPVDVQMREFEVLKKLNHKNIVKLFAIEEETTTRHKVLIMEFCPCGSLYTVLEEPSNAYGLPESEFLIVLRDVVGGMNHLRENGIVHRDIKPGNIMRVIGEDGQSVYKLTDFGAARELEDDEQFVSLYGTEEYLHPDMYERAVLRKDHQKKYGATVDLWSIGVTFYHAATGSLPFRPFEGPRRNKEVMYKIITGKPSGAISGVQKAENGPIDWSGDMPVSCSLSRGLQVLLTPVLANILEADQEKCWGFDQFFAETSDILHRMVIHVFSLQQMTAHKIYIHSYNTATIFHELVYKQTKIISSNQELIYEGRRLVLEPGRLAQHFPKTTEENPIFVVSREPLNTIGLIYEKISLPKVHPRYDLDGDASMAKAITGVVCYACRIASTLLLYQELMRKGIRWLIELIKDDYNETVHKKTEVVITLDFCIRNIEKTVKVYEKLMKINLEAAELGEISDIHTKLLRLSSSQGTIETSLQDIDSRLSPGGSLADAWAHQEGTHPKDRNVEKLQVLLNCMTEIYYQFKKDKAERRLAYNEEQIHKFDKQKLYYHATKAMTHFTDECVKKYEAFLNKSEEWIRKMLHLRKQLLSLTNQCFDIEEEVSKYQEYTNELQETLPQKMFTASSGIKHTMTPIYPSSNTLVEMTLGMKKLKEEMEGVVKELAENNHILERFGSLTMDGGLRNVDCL

[3] = target: DNA topoisomerase 2-alpha (Homo sapiens, UniProt P11388)
[4] = target: Serine/threonine-protein kinase/endoribonuclease IRE2 (Homo sapiens, UniProt Q76MJ5)
[5] = target: Tyrosine-protein kinase Yes (Homo sapiens, UniProt P07947)
[6] = target: T3, Tyrosine--tRNA ligase, cytoplasmic (Homo sapiens, UniProt P54577)
T3 sequence (P54577 whole entry): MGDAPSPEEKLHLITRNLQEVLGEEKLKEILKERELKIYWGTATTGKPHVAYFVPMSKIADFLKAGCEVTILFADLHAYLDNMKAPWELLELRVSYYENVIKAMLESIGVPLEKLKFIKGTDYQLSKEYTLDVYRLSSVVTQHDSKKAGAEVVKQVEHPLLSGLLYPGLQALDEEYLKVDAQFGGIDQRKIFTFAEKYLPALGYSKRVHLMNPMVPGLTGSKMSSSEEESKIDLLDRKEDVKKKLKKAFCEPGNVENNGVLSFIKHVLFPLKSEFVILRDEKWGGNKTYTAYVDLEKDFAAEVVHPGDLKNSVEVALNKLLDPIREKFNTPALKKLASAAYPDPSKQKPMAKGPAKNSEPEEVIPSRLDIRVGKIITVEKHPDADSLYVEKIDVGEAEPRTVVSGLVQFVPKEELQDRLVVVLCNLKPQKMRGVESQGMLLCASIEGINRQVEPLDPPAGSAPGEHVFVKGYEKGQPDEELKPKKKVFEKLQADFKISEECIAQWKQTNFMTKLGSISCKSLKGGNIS

[7] = target: Protein kinase C beta type (Homo sapiens, UniProt P05771)
[8] = target: Protein kinase C theta type (Homo sapiens, UniProt Q04759)
[9] = target: High affinity nerve growth factor receptor (Homo sapiens, UniProt P04629)
Also: in the data inactive means no Kd found up to 30 µM.

Chain of Serine/threonine-protein kinase/endoribonuclease IRE2 (Q76MJ5 whole entry): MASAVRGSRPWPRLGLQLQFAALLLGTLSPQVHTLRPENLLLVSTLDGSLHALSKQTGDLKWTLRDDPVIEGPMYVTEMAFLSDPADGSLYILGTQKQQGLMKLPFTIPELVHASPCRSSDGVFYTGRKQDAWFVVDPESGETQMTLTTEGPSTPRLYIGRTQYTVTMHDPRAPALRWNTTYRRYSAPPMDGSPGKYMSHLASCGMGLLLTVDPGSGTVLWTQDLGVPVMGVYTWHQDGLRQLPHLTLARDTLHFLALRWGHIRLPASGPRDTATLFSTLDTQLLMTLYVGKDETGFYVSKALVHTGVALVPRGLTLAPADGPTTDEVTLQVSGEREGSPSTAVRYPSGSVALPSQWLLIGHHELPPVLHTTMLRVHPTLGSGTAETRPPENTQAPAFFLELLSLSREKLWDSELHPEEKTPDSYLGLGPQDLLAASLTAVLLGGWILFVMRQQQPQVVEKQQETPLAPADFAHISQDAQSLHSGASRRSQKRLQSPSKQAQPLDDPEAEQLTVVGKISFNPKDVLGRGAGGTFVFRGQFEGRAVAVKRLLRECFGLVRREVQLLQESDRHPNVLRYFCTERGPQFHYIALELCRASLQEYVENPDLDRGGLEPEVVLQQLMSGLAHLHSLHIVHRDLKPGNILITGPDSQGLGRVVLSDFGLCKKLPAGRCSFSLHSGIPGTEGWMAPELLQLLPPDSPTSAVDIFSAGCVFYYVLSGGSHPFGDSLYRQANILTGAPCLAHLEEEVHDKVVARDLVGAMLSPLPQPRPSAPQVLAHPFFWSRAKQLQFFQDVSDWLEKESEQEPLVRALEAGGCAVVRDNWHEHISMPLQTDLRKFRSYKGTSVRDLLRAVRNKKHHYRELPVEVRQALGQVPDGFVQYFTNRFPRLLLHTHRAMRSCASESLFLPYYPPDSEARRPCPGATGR
Chain of Protein kinase C theta type (Q04759 whole entry): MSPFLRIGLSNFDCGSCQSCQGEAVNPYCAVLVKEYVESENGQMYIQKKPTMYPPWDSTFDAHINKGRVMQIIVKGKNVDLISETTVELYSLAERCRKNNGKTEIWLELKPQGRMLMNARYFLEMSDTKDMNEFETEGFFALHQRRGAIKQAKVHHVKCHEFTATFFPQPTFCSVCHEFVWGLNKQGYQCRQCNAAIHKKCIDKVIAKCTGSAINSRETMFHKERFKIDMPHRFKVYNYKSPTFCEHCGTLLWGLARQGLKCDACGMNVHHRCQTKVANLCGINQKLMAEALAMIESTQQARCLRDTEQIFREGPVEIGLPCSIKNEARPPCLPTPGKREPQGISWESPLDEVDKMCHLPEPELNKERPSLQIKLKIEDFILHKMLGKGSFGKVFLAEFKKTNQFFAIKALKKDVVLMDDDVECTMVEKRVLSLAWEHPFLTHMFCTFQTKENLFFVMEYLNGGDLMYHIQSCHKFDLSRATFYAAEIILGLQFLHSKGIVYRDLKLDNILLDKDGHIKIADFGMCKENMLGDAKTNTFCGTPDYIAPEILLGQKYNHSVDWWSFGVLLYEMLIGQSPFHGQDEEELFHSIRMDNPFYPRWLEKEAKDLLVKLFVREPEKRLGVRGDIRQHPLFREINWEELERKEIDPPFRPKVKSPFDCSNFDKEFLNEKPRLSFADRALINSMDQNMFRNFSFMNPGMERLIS
Chain of High affinity nerve growth factor receptor (P04629 whole entry): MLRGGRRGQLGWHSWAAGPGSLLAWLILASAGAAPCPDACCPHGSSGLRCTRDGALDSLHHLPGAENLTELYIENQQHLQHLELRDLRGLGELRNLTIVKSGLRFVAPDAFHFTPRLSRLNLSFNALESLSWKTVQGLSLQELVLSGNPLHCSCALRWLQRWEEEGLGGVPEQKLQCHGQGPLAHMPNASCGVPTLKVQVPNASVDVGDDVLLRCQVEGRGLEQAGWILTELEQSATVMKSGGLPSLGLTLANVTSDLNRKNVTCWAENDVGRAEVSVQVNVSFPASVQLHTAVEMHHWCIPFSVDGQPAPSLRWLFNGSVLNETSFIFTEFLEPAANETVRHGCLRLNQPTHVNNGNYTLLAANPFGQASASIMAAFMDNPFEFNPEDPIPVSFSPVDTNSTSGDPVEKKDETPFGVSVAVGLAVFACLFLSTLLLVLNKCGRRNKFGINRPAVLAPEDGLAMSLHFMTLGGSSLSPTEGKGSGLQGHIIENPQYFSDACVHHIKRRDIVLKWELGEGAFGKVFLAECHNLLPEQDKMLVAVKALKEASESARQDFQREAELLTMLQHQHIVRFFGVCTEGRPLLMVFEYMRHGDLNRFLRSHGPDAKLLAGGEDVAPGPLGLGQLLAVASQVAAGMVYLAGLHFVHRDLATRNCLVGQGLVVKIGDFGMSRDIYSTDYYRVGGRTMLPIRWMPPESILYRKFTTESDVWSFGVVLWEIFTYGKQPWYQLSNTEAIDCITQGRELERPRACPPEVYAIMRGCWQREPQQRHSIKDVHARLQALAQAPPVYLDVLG
Chain of DNA topoisomerase 2-alpha (P11388 whole entry): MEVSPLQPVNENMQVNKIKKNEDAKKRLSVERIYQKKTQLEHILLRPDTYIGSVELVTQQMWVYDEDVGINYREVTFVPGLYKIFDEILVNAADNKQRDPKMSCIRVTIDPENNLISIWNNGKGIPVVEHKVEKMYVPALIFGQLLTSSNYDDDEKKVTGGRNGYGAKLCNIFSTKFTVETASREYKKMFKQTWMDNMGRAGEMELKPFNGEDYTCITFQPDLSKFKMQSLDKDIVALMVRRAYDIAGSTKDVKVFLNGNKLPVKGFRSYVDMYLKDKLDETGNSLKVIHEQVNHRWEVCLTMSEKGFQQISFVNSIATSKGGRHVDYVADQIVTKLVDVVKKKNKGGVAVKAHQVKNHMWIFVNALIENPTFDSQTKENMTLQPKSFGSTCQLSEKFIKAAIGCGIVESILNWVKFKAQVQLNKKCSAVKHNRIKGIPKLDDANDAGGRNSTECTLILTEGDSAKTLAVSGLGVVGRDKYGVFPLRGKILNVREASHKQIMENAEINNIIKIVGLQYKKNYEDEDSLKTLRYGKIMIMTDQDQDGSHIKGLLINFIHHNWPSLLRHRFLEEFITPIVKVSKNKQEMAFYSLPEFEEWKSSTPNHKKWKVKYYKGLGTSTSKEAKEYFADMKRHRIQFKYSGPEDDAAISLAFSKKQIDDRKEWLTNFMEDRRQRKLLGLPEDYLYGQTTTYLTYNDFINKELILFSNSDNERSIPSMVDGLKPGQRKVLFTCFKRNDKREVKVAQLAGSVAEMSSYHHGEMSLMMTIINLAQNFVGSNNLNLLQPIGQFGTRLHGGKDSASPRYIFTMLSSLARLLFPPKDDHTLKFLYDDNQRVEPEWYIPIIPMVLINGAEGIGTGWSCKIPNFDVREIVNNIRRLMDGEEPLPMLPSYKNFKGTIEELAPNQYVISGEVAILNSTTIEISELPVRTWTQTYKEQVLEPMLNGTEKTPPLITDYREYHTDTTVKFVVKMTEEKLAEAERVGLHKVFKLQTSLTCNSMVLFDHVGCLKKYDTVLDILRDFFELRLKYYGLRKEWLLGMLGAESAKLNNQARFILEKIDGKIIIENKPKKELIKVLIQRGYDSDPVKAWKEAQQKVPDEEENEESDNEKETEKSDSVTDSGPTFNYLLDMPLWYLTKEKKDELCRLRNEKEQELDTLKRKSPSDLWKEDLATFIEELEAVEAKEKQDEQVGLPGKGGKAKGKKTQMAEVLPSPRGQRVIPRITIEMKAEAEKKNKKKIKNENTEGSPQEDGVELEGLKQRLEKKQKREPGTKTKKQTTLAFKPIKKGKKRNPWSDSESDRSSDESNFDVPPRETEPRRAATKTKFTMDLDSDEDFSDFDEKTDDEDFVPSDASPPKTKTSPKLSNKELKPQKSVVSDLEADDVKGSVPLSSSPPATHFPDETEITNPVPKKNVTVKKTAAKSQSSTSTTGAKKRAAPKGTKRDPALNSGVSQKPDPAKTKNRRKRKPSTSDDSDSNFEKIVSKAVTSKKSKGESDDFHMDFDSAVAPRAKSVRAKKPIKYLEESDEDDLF
Chain of Protein kinase C beta type (P05771 whole entry): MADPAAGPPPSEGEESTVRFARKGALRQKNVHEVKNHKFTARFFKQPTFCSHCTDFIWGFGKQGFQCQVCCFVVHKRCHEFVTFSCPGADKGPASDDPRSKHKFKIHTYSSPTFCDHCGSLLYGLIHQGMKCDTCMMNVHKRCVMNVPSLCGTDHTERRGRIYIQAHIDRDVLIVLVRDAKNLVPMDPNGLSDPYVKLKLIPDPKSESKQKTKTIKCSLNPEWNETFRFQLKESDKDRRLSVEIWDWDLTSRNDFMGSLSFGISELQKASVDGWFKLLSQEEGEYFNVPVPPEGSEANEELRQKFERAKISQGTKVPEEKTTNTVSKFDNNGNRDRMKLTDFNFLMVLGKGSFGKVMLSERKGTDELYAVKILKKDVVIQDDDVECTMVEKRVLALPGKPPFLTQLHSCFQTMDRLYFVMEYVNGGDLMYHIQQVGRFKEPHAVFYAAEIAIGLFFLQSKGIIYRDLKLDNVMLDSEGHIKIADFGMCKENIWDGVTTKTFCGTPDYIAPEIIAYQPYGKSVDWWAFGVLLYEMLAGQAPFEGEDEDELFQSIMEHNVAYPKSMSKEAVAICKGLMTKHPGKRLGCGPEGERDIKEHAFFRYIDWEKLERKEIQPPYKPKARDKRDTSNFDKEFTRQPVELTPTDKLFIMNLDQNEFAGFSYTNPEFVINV

| SMILES | Kd [1] | Kd [2] | Kd [3] | Kd [4] | Kd [5] | Kd [6] | Kd [7] | Kd [8] | Kd [9] |
| --- | --- | --- | --- | --- | --- | --- | --- | --- | --- |
| O=C(Cc1ccc(-c2ccc(OCCN3CCOCC3)cc2)cn1)NCc1ccccc1 [TIRBANIBULIN] | > 30 µM (inactive) | > 30 µM (inactive) | > 30 µM (inactive) | > 30 µM (inactive) | > 30 µM (inactive) | > 30 µM (inactive) | > 30 µM (inactive) | > 30 µM (inactive) | > 30 µM (inactive) |
| COc1cc2ncnc(Oc3cccc(NC(=O)Nc4cc(C(C)(C)C(F)(F)F)on4)c3)c2cc1OC [CEP-32496] | > 30 µM (inactive) | > 30 µM (inactive) | > 30 µM (inactive) | > 30 µM (inactive) | > 30 µM (inactive) | > 30 µM (inactive) | > 30 µM (inactive) | > 30 µM (inactive) | > 30 µM (inactive) |
| Cc1cc(C(=O)NOCCO)c(Nc2ccc(I)cc2F)n(C)c1=O [AZD-8330] | > 30 µM (inactive) | > 30 µM (inactive) | > 30 µM (inactive) | > 30 µM (inactive) | > 30 µM (inactive) | > 30 µM (inactive) | > 30 µM (inactive) | > 30 µM (inactive) | > 30 µM (inactive) |
| C#Cc1cccc(Nc2ncnc3cc(OC)c(OCCCCCCC(=O)NO)cc23)c1 [CUDC-101] | > 30 µM (inactive) | > 30 µM (inactive) | > 30 µM (inactive) | > 30 µM (inactive) | > 30 µM (inactive) | > 30 µM (inactive) | > 30 µM (inactive) | > 30 µM (inactive) | > 30 µM (inactive) |
| NC1(c2ccc(-c3nc4ccn5c(=O)[nH]nc5c4cc3-c3ccccc3)cc2)CCC1 [MK-2206] | > 30 µM (inactive) | > 30 µM (inactive) | > 30 µM (inactive) | > 30 µM (inactive) | > 30 µM (inactive) | > 30 µM (inactive) | > 30 µM (inactive) | > 30 µM (inactive) | > 30 µM (inactive) |
| Cc1nc2cc(-c3nn(C(C)C)c4ncnc(N)c34)ccc2o1 | 5.96 µM (active) | > 30 µM (inactive) | > 30 µM (inactive) | > 30 µM (inactive) | > 30 µM (inactive) | > 30 µM (inactive) | > 30 µM (inactive) | > 30 µM (inactive) | > 30 µM (inactive) |
| O=C1NC(=O)[C@@H](c2cn3c4c(cccc24)CCC3)[C@@H]1c1c[nH]c2ccccc12 [TIVANTINIB] | > 30 µM (inactive) | > 30 µM (inactive) | > 30 µM (inactive) | > 30 µM (inactive) | > 30 µM (inactive) | > 30 µM (inactive) | > 30 µM (inactive) | > 30 µM (inactive) | > 30 µM (inactive) |
| CO[C@H]1C[C@@H]2CC[C@@H](C)[C@@](O)(O2)C(=O)C(=O)N2CCCC[C@H]2C(=O)O[C@H]([C@H](C)C[C@@H]2CC[C@@H](OP(C)(C)=O)[C@H](OC)C2)CC(=O)[C@H](C)/C=C(\C)[C@@H](O)[C@@H](OC)C(=O)[C@H](C)C[C@H](C)/C=C/C=C/C=C/1C [RIDAFOROLIMUS] | > 30 µM (inactive) | > 30 µM (inactive) | > 30 µM (inactive) | > 30 µM (inactive) | > 30 µM (inactive) | > 30 µM (inactive) | > 30 µM (inactive) | > 30 µM (inactive) | > 30 µM (inactive) |
| COCC(=O)NC/C=C/c1ccc2ncnc(Nc3ccc(Oc4ccc(C)nc4)c(C)c3)c2c1 [CP-724714] | > 30 µM (inactive) | > 30 µM (inactive) | > 30 µM (inactive) | > 30 µM (inactive) | > 30 µM (inactive) | > 30 µM (inactive) | > 30 µM (inactive) | > 30 µM (inactive) | > 30 µM (inactive) |
| COc1ncc(-c2ccc3nccc(-c4ccnnc4)c3c2)cc1NS(=O)(=O)c1ccc(F)cc1F [OMIPALISIB] | > 30 µM (inactive) | > 30 µM (inactive) | > 30 µM (inactive) | > 30 µM (inactive) | > 30 µM (inactive) | > 30 µM (inactive) | > 30 µM (inactive) | > 30 µM (inactive) | > 30 µM (inactive) |
| Cc1cnc(NC(=O)Nc2cc(Br)c(C)cc2OC[C@@H]2CNCCO2)cn1 [RABUSERTIB] | > 30 µM (inactive) | > 30 µM (inactive) | > 30 µM (inactive) | > 30 µM (inactive) | > 30 µM (inactive) | > 30 µM (inactive) | > 30 µM (inactive) | > 30 µM (inactive) | > 30 µM (inactive) |
| Cc1cccc(-c2nn3c(c2-c2ccnc4ccc(C(N)=O)cc24)CCC3)n1 [GALUNISERTIB] | > 30 µM (inactive) | > 30 µM (inactive) | > 30 µM (inactive) | > 30 µM (inactive) | > 30 µM (inactive) | > 30 µM (inactive) | > 30 µM (inactive) | > 30 µM (inactive) | > 30 µM (inactive) |
| COc1cc([C@@H]2c3cc4c(cc3[C@H](O)[C@H]3COC(=O)[C@@H]23)OCO4)cc(OC)c1OC [AXL-1717] | > 30 µM (inactive) | > 30 µM (inactive) | 0.486 µM | > 30 µM (inactive) | > 30 µM (inactive) | > 30 µM (inactive) | > 30 µM (inactive) | > 30 µM (inactive) | > 30 µM (inactive) |
| Cc1csc(-c2nnc(Nc3ccc(Oc4ncccc4-c4ccnc(N)n4)cc3)c3ccccc23)c1 [AMG-900] | 1.82 µM (active) | > 30 µM (inactive) | > 30 µM (inactive) | > 30 µM (inactive) | > 30 µM (inactive) | > 30 µM (inactive) | > 30 µM (inactive) | > 30 µM (inactive) | > 30 µM (inactive) |
| Nc1ncnc2c1c(-c1cccc(OCc3ccccc3)c1)cn2[C@H]1C[C@@H](CN2CCC2)C1 [AEW-541] | > 30 µM (inactive) | > 30 µM (inactive) | > 30 µM (inactive) | > 30 µM (inactive) | 0.337 µM (active) | > 30 µM (inactive) | > 30 µM (inactive) | > 30 µM (inactive) | > 30 µM (inactive) |
| C=CC(=O)N1CCC[C@H](n2c(=O)n(-c3ccc(Oc4ccccc4)cc3)c3c(N)ncnc32)C1 | > 30 µM (inactive) | > 30 µM (inactive) | > 30 µM (inactive) | > 30 µM (inactive) | 0.005 µM | > 30 µM (inactive) | > 30 µM (inactive) | > 30 µM (inactive) | > 30 µM (inactive) |
| COc1ccc(S(=O)(=O)N(C(C)=O)c2ccccc2/C=C/c2cc[n+]([O-])cc2)cc1 [HMN-214] | > 30 µM (inactive) | > 30 µM (inactive) | > 30 µM (inactive) | > 30 µM (inactive) | > 30 µM (inactive) | > 30 µM (inactive) | > 30 µM (inactive) | > 30 µM (inactive) | > 30 µM (inactive) |
| COc1cc2c(Nc3ccc(Cl)c(Cl)c3F)ncnc2cc1OC[C@@H]1C[C@@H]2CN(C)C[C@@H]2C1 [TESEVATINIB] | > 30 µM (inactive) | > 30 µM (inactive) | > 30 µM (inactive) | > 30 µM (inactive) | 3.94 µM (active) | > 30 µM (inactive) | > 30 µM (inactive) | > 30 µM (inactive) | > 30 µM (inactive) |
